Source: patent US6664231B1, “Anti-fungal peptides” (priority 1993, dated 2003)
Square brackets hold non-standard residues; d marks the D form. Peptide text beside a SMILES is read from it. Phe(4-NH2) = Nc1ccc(C[C@H](N)C(=O)O)cc1; NMeL = CN[C@@H](CC(C)C)C(=O)O; NMeV = CN[C@H](C(=O)O)C(C)C; Dab = NCC[C@H](N)C(=O)O; Sar = CNCC(=O)O

Test system: C. albicans (CA-1, Strain SLU-1)
Assay: Radial diffusion assay
Type: cell-based, Candida albicans
Details: pmoles of peptide added to well to achieve a 30 mm^2 zone, PROBIT analysis, crude or purified (P′) peptide
Method in brief: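 Yeast at 1×10^6 CFU/mL in agarose underlayer (3% Sabouraud, 10 mM sodium phosphate pH 7.4); 2-fold peptide dilutions in D-PBS from ~1 mg/mL loaded into wells, 3 h at 37° C, then nutrient overlayer overnight. Value: pmol/well giving 30 mm^2 net clear zone, by PROBIT regression.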

Compound	C. albicans pmol/30 mm^2 zone	also measured
CC[C@H](C)[C@H](NC(=O)[C@H](CC(C)C)NC(=O)CN(C)C(=O)CNC(=O)[C@@H](NC(=O)[C@H](CCCCN)NC(=O)[C@H](CO)NC(=O)[C@@H](N)CCCCN)C(C)C)C(=O)N[C@@H](CCC(N)=O)C(=O)N[C@@H](CC(C)C)C(=O)N[C@@H](Cc1ccccc1)C(=O)N[C@@H](Cc1c[nH]cn1)C(=O)N[C@@H](CCCCN)C(=O)N[C@@H](CCCCN)C(N)=O [XMP.259] (H-KSKVG[Sar]LIQLFHKK-NH2)	2,117 pmol/30 mm^2 zone	
CC[C@H](C)[C@H](NC(=O)[C@H](CC(C)C)NC(=O)[C@H](C(C)C)N(C)C(=O)CNC(=O)[C@@H](NC(=O)[C@H](CCCCN)NC(=O)[C@H](CO)NC(=O)[C@@H](N)CCCCN)C(C)C)C(=O)N[C@@H](CCC(N)=O)C(=O)N[C@@H](CC(C)C)C(=O)N[C@@H](Cc1ccccc1)C(=O)N[C@@H](Cc1c[nH]cn1)C(=O)N[C@@H](CCCCN)C(=O)N[C@@H](CCCCN)C(N)=O [XMP.260] (H-KSKVG[NMeV]LIQLFHKK-NH2)	742 pmol/30 mm^2 zone	
CC[C@H](C)[C@H](NC(=O)[C@H](CC(C)C)NC(=O)[C@H](CC(C)C)N(C)C(=O)CNC(=O)[C@@H](NC(=O)[C@H](CCCCN)NC(=O)[C@H](CO)NC(=O)[C@@H](N)CCCCN)C(C)C)C(=O)N[C@@H](CCC(N)=O)C(=O)N[C@@H](CC(C)C)C(=O)N[C@@H](Cc1ccccc1)C(=O)N[C@@H](Cc1c[nH]cn1)C(=O)N[C@@H](CCCCN)C(=O)N[C@@H](CCCCN)C(N)=O [XMP.261] (H-KSKVG[NMeL]LIQLFHKK-NH2)	867 pmol/30 mm^2 zone	
CC[C@H](C)[C@H](NC(=O)[C@H](CC(C)C)NC(=O)[C@H](Cc1c[nH]c2ccccc12)NC(=O)[C@@H](N)CCCCN)C(=O)N[C@@H](CCC(N)=O)C(=O)N[C@@H](CC(C)C)C(=O)N[C@@H](Cc1ccccc1)C(=O)N[C@@H](Cc1c[nH]cn1)C(=O)N[C@@H](CCCCN)C(=O)N[C@@H](CCCCN)C(N)=O [XMP.293]	1,156 pmol/30 mm^2 zone	C. albicans pmol/30 mm^2 zone (listed as XMP.293P′): 215 pmol/30 mm^2 zone
CC[C@H](C)[C@H](NC(=O)[C@H](CC(C)C)NC(=O)[C@H](Cc1c[nH]c2ccccc12)NC(=O)[C@@H](N)CCCCN)C(=O)N[C@@H](CCC(N)=O)C(=O)N[C@@H](CC(C)C)C(=O)N[C@@H](Cc1ccccc1)C(=O)N[C@@H](Cc1c[nH]cn1)C(=O)N[C@@H](CCCCN)C(N)=O [XMP.297]	1,817 pmol/30 mm^2 zone	C. albicans pmol/30 mm^2 zone (listed as XMP.297P′): 564 pmol/30 mm^2 zone
CC[C@H](C)[C@H](NC(=O)[C@H](CC(C)C)NC(=O)[C@@H](N)Cc1c[nH]c2ccccc12)C(=O)N[C@@H](CCC(N)=O)C(=O)N[C@@H](CC(C)C)C(=O)N[C@@H](Cc1ccccc1)C(=O)N[C@@H](Cc1c[nH]cn1)C(=O)N[C@@H](CCCCN)C(=O)N[C@@H](CCCCN)C(N)=O [XMP.298]	2,628 pmol/30 mm^2 zone	C. albicans pmol/30 mm^2 zone (listed as XMP.298P′): 1,106 pmol/30 mm^2 zone
CC[C@H](C)[C@H](NC(=O)[C@H](CC(C)C)NC(=O)[C@@H](N)Cc1c[nH]c2ccccc12)C(=O)N[C@@H](CCC(N)=O)C(=O)N[C@@H](CC(C)C)C(=O)N[C@@H](Cc1ccccc1)C(=O)N[C@@H](Cc1c[nH]cn1)C(=O)N[C@@H](CCCCN)C(N)=O [XMP.303]	>4,694 pmol/30 mm^2 zone	C. albicans pmol/30 mm^2 zone (listed as XMP.303P′): 1,307 pmol/30 mm^2 zone
CC[C@H](C)[C@H](NC(=O)[C@H](CC(C)C)NC(=O)[C@H](Cc1c[nH]c2ccccc12)NC(=O)[C@@H](N)CCCCN)C(=O)N[C@@H](CCC(N)=O)C(=O)N[C@@H](CC(C)C)C(=O)N[C@@H](CCCCN)C(N)=O [XMP.323]	>4,627 pmol/30 mm^2 zone	
CC[C@H](C)[C@H](NC(=O)[C@H](CC(C)C)NC(=O)[C@H](Cc1c[nH]c2ccccc12)NC(=O)[C@@H](N)CCCCN)C(=O)N[C@@H](CCC(N)=O)C(=O)N[C@@H](CC(C)C)C(=O)N[C@@H](CCCCN)C(=O)N[C@@H](CCCCN)C(N)=O [XMP.324]	894 pmol/30 mm^2 zone	
CC[C@H](C)[C@H](NC(=O)[C@H](CC(C)C)NC(=O)[C@H](Cc1c[nH]c2ccccc12)NC(=O)[C@H](CCCCN)NC(=O)[C@@H](N)CCCCN)C(=O)N[C@@H](CCC(N)=O)C(=O)N[C@@H](CC(C)C)C(=O)N[C@@H](CCCCN)C(N)=O [XMP.326]	2,182 pmol/30 mm^2 zone	
CC[C@H](C)[C@H](NC(=O)[C@H](CC(C)C)NC(=O)[C@H](Cc1c[nH]c2ccccc12)NC(=O)[C@H](CCN)NC(=O)[C@@H](N)CCN)C(=O)N[C@@H](CCC(N)=O)C(=O)N[C@@H](CC(C)C)C(=O)N[C@@H](CCN)C(=O)N[C@@H](CCN)C(N)=O [XMP.339] (H-[Dab][Dab]WLIQL[Dab][Dab]-NH2)	2,878 pmol/30 mm^2 zone	C. albicans pmol/30 mm^2 zone (listed as XMP.339P′): 2,599 pmol/30 mm^2 zone
CC[C@H](C)[C@H](NC(=O)[C@H](CC(C)C)NC(=O)[C@H](Cc1c[nH]c2ccccc12)NC(=O)[C@H](Cc1ccc(N)cc1)NC(=O)[C@@H](N)Cc1ccc(N)cc1)C(=O)N[C@@H](CCC(N)=O)C(=O)N[C@@H](CC(C)C)C(=O)N[C@@H](Cc1ccc(N)cc1)C(=O)N[C@@H](Cc1ccc(N)cc1)C(N)=O [XMP.340] (H-[Phe(4-NH2)][Phe(4-NH2)]WLIQL[Phe(4-NH2)][Phe(4-NH2)]-NH2)	b (No detectable activity up to 5 μg/well)	
CC[C@H](C)[C@H](NC(=O)[C@H](CC(C)C)NC(=O)[C@H](Cc1ccc(N)cc1)NC(=O)[C@H](CCCCN)NC(=O)[C@@H](N)CCCCN)C(=O)N[C@@H](CCC(N)=O)C(=O)N[C@@H](CC(C)C)C(=O)N[C@@H](CCCCN)C(=O)N[C@@H](CCCCN)C(N)=O [XMP.346] (H-KK[Phe(4-NH2)]LIQLKK-NH2)	640 pmol/30 mm^2 zone	
Ac-PWLIQLFHKK-OH [XMP.354]	6,361 pmol/30 mm^2 zone	
H-ASKVGWLIQLFHKK-NH2 [XMP.31]	426 pmol/30 mm^2 zone	
H-GWLIQLFHKKIESALRNKMNS-NH2 [XMP.55]	>2666 pmol/30 mm^2 zone	

Compound	C. albicans pmol/30 mm^2 zone	also measured
H-IQLFHK-NH2 [XMP.318]	b (No detectable activity up to 5 μg/well)	
H-IQLFHKK-NH2 [XMP.311]	b (No detectable activity up to 5 μg/well)	
H-KAKVGWLIQLFHKK-NH2 [XMP.32]	294 pmol/30 mm^2 zone	
H-KKKWLIQLKKK-NH2 [XMP.350]	129 pmol/30 mm^2 zone	
H-KKWLIQL-NH2 [XMP.325]	4,135 pmol/30 mm^2 zone	
H-KSAVGWLIQLFHKK-NH2 [XMP.33]	603 pmol/30 mm^2 zone	
H-KSKAGWLIQLFHKK-NH2 [XMP.34]	319 pmol/30 mm^2 zone	
H-KSKVAWLIQLFHKK-NH2 [XMP.35]	442 pmol/30 mm^2 zone	
H-KSKVFWLIQLFHKK-NH2 [XMP.95]	>1398 pmol/30 mm^2 zone	
H-KSKVGGLIQLFHKK-NH2 [XMP.249]	1,242 pmol/30 mm^2 zone	
H-KSKVGILIQLFHKK-NH2 [XMP.251]	1,289 pmol/30 mm^2 zone	
H-KSKVGKLIQLFHKK-NH2 [XMP.135]	428 pmol/30 mm^2 zone	
H-KSKVGLLIQLFHKK-NH2 [XMP.250]	536 pmol/30 mm^2 zone	
H-KSKVGWLAQLFHKK-NH2 [XMP.38]	391 pmol/30 mm^2 zone	
H-KSKVGWLIALFHKK-NH2 [XMP.39]	1792 pmol/30 mm^2 zone	
H-KSKVGWLIDLFHKK-NH2 [XMP.264]	879 pmol/30 mm^2 zone	
